Experimental data: patent US20260273011A1, “COMPOSITION COMPRISING STEWARTIA PSEUDOCAMELLIA EXTRACT AS ACTIVE INGREDIENT FOR PREVENTION OR TREATMENT OF DEMENTIA” (priority 2022, published 2026)
Like-named read-outs stand apart in the source and are kept apart here. Ends that are not written are not given here.

Key:
[1] = system: human neuroblastoma SH-SY5Y cells; assay: Neuroprotective effect against H2O2 cytotoxicity (MTS); assay type: cell-based; details: 50 μM H2O2 treatment
Experimental: After removing the medium, […], which has a cell viability of about 50%, was treated with fresh medium, and then 10 μl of the samples of Examples 1 to 4 and Comparative Example 1 were treated at each concentration, and the resulting mixtures were allowed to react at 95% humidity, 5% CO2, and 37° C. for 24 hours.

SH-SY5Y cells = assay: ROS generation suppression ability in neurons (DCF-DA, H2O2); assay type: cell-based, human; details: ursolic acid 0.1 to 5 μg/ml
Experimental: The generation of ROS is measured by the intensity of fluorescent material generation using 2′,7′-dichlorofluorescin diacetate (DCF-DA), and the principle is that 2′,7′-dichlorofluorescin (DCF) in a reduced or acetylated form releases a fluorescent material ([…]) when the acetate group is removed by the […] and ROS generated within cells.
SH-SY5Y cells were plated into a 96-well plate (100 μl) at a concentration of 5×10^4 cells/well and cultured for 24 hours. After the culture, the medium was removed, and the sample was treated at an appropriate concentration using a medium containing no serum and then cultured for 24 hours. After 24 hours, 100 μl of PBS was added and the resulting mixture was washed, and this process was repeated three times. DCF-DA dissolved in dimethyl sulfoxide (DMSO) was diluted to 20 μM (in PBS), and 100 μl of the diluted solution was added and incubated for 20 minutes. After adding 100 μl of 100 μM H2O2 (in PBS), the mixture was allowed to react for 30 minutes, and the fluorescence intensity was measured at 486 nm and 535 nm using an enzyme-linked immunosorbent assay (ELISA) reader.

[2] = system: human neuroblastoma SH-SY5Y cells; assay: Neuroprotective effect against Aβ-peptide 25-35 cytotoxicity (MTS); assay type: cell-based; design: dose or concentration left out as unconfirmed; details: Aβ treatment
Experimental: (§1) To measure the neuronal cell death concentration by Aβ 25-35, Aβ-protein fragment 25-35 (Sigma-Aldrich, A4559-1 MG) was purchased and used.
(§2) For the aggregation of Aβ, it was dissolved in distilled water and allowed to react at 37° C. for five days at 150 rpm.

[3] = system: human neuroblastoma SH-SY5Y cells; assay: Human neuroblastoma SH-SY5Y cell toxicity (MTS); assay type: cell-based
Experimental: Neuronal cells (human neuroblastoma SH-SY5Y) were obtained from the Korean Cell Line Bank (KCLB, Seoul, Korea). The medium used was a minimum essential medium (SH30024.01, Cytiva, USA) containing 10% fetal bovine serum (FBS, Gibco, CA, USA) medium, 25 mM 4-(2-hydroxyethyl)-1-piperazine ethanesulfonic acid (HEPES), and 25 mM NaHCO3. The cells were cultured in an incubator controlled at 95% humidity, 5% CO2, and 37° C., and an antibiotic for the medium (penicillin-streptomycin, Gibco, CA, USA) was used to suppress microbial contamination or proliferation. When the cells covered about 80% of the dish, the dish was washed with phosphate-buffered saline-ethylenediaminetetraacetic acid (PBS-EDTA, Thermo Fisher Scientific, Massachusetts, USA), and then 1 ml of 0.05% trypsin-EDTA (Gibco, Thermo Fisher Scientific, Massachusetts, USA) was used to detach the cells attached to the bottom of the dish and subculture them. The medium was exchanged with fresh medium every 48 to 72 hours to culture the cells.
After removing the medium, 100 μl of the sample diluted with fresh medium was applied and allowed to react with the cells for 24 hours in an incubator at 95% humidity, 5% CO2, and 37° C.
In other words, 1 ml of the reagent was diluted with 9 ml of medium (DMEM high glucose, free FBS), and 100 μl of the mixture was added to each well.

[4] = system: human neuroblastoma SH-SY5Y cells; assay: Cell death concentration for Aβ-peptide 25-35 (MTS); assay type: cell-based; details: Aβ 20 μM, 24 hours
Experimental: as §1, §2

[5] = system: human neuroblastoma SH-SY5Y cells; details: H2O2 50 μM, 24 hours
Experimental: First, the cells were plated into a 96-well plate at a concentration of 5×10^3 cells/well, and then cultured for 24 hours at 95% humidity, 5% CO2, and 37° C. for stabilization. After removing the medium, 10 μl of H2O2 diluted with fresh medium was treated at each concentration, and the resulting mixture was allowed to react for 24 hours at 95% humidity, 5% CO2, and 37° C.
The viability of the cells was measured using the MTS (CellTiter 96® AQueous One Solution Cell Proliferation Assay, Promega, USA) reagent. In other words, 10 μl of the reagent was treated per well, and after a reaction at 37° C. for 60 minutes, the absorbance was measured at 490 nm using a microplate reader (Molecular Devices LLC, VersaMax ELISA Microplate Reader, USA).

C[C@H]1[C@H](C)CC[C@]2(C(=O)O)CC[C@]3(C)C(=CC[C@@H]4[C@@]5(C)CC[C@H](O)C(C)(C)[C@@H]5CC[C@]43C)[C@H]12 [ursolic acid]
neuroprotective effect against H2O2 cytotoxicity [1]: high cell protection efficacy | ROS generation suppression ability (SH-SY5Y cells): significant suppression activity | neuroprotective effect against Aβ-peptide 25-35 cytotoxicity [2]: significant effect | concentration at which toxicity on neurons was exhibited [3]: ≥ 10 µg/mL

GSNKGAIIGLM [Aβ, Aβ-protein fragment 25-35]
cell viability [4]: approximately 50%

OO [Example H2O2, Hydrogen peroxide]
cell viability [5]: approximately 50%
